Measurements from patent publication US8039219B2, “Method of using GPR35 to identify metabolic-stabilizing compounds” (Arena Pharmaceuticals, Inc., priority 2004, dated 2011).

Columns and labels:
GPR35 = GPR35 (Homo sapiens, UniProt Q9HC97); details: reported by Wang et al., J. Biol. Chem. 281:22021-22028 (2006); cited from earlier work
[1] = system: mouse GPR35 expression in 3T3-L1 adipocytes; assay: TaqMan analysis of mouse GPR35 expression in 3T3-L1 adipocytes after treatments; format: cell-based; details: 10 μM Linoleic Acid, 1 and 24 hours, serum free media; control untreated adipocytes at time 0; FIG. 8
Protocol: GPR35 expression in 3T3-L1 adipocytes was then analyzed after certain treatments, such as treatment with linoleic acid. Briefly, 3T3-L1 cells were differentiated into adipocytes using a standardized protocol found in Patel Y M, Lane M D. (Role of calpain in adipocyte differentiation. Proc. Natl. Acad. Sci. USA 96:1279-1284, 1999). Cells were then treated for 1 and 24 hours in serum free media containing either 50 nM insulin (Sigma Cat # I-1882), 10 μM Linoleic Acid (Calbiochem Cat # 436305 lot #B52793), 50 pg/ml IL-1Beta (R&D Systems Cat # 401-ML lot #BN034012), 0.5 ng/mL TNF-alpha (R&D Systems Cat# 410-MT lot # CS083051). Control was untreated 3T3-L1 adipocytes at time 0. RNA was then isolated using Trizol method (Invitrogen Cat # 15596-018). cDNA was made using Biorad iScript cDNA Synthesis Kit.
A 1× TaqMan supermix was made in a 5 mL polypropylene tube. Forward and Reverse primers were added to give a 300 nM final concentration; appropriate amount of probe was added to give a final concentration of 200 nM. Total volume per well was 20 μL. 2 μL was cDNA, while the other 18 μL was TaqMan supermix and nuclease-free water. The sequence for primers and the probe were: […]
The thermo cycler conditions used were: (1) initial steps: hold for 2 minutes at 50° C., then hold for 10 minutes at 95° C. […]

Chain of GPR35 (Q9HC97 whole entry, species assumed): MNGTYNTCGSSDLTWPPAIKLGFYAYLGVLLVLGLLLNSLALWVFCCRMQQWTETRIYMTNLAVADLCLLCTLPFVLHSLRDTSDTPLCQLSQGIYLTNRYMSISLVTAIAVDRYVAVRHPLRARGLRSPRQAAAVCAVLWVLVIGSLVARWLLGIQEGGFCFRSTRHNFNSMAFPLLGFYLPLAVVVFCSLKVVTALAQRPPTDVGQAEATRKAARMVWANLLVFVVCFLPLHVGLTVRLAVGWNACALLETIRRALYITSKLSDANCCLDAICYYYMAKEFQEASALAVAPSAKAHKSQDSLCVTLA

Structure (SMILES)	ligand for GPR35 (GPR35)	GPR35 expression in 3T3-L1 adipocytes [1]
O=C(O)c1cc(=O)c2ccccc2[nH]1 [kynurenic acid]	ligand for GPR35	
CCCCC/C=C\C/C=C\CCCCCCCC(=O)O [linoleic acid]		significantly increased
